Measurements reported in US11512073B2, “Benzimidazole derivatives, pharmaceutical composition comprising the same, and use thereof” (Chongqing University of Arts and Sciences, priority 2020, dated 2022).

Key:
MDA-MB-231 cells = experiment: Annexin V-FITC/PI apoptosis assay by flow cytometry; assay type: cell-based, Human; conditions: 48 h, dose-dependent; from 3.64% in control; p<0.01
Procedure: Cells in a logarithmic growth phase were harvested and seeded into six-well plates with 30% cell density and cultured overnight in an incubator. Once adhered to the bottom of the plate, cells were treated with different doses of compound 7a for 48 h, and then employed in flow cytometry analysis. For cell cycle assay, the collected cells were washed with phosphate-buffered saline (PBS) and fixed with 70% cold ethanol in 4° C. for 24 h. After washing three times of PBS, the fixed cells were incubated in 200 μL PBS solution containing 1 μL propidium iodide (BD, CA, USA) and 1 μL RNase (Sigma Aldrich, USA) at 37° C. for 0.5 h. Finally, cells were analyzed using BD Accuri™ C6 flow cytometry (BD Biosciences, USA). For the cell apoptosis assay, after the cells were harvested and washed twice with PBS, the percentage of apoptotic cells were measured using an Annexin V-FITC/PI Apoptosis Assay Kit (BD Biosciences, USA). The BD Accuri™ C6 flow cytometry was used to analyze the apoptosis process. The FlowJo software was used to analyze the cell cycle arrest and apoptotic rate.

HCT116 cells = experiment: mCherry-GFP-LC3B reporter autophagic flux assay; assay type: cell-based; conditions: 12 h treatment, versus control
Procedure: Mcherry-EGFP-LC3B overexpression system was co-transfected with lenviral packaging vectors pSPAX2 and pMD2G into HEK293FT cells using Fugene Transfection Reagent (Promega, MW, USA). Virus particles were collected after 48 h infection, filtered through a 0.22 μm membrane, added into colorectal cancer cell HCT116, and then incubated for 12 h at 37° C. The medium was replaced and HCT116 cells were selected for puromycin tolerance (10 μg/mL) to obtain the stable cells expressing mcherry-EGFP-LC3B.

## O=C(NC1CCCCC1)c1[nH]cnc1-c1nc2ccccc2[nH]1 [Compound 7a]
MDA-MB-231 cells
  proportion of late-phase apoptosis: 34.2%
HCT116 cells
  number of yellow fluorescent vesicles (autophagosomes): significant increase in the number of yellow fluorescent vesicles
